# Laboratory results taken from US12642768B2, “Lipid nanoparticles” (Beijing Jitai Life Sciences Ltd, priority 2022, dated 2026).
# Legend:
# [1] = Particle size and PDI of lipid nanoparticles by dynamic light scattering; format: physicochemical; conditions: for Particle size dispersity (PDI): LNP 50:38.5:10:1.5, N/P 6, luciferase mRNA
# Procedure: (§1) Lipid nanoparticles were prepared by (1) dissolving and mixing ionizable lipid compounds, cholesterol, phospholipids and polyethylene glycolated lipids in ethanol at (molar percentages) 50%, 38.5%, 10% and 1.5%, respectively; (2) dissolving the mRNA active ingredient in 25 mM sodium acetate solution (pH=4.5); (3) using an automated high-throughput microfluidic system to mix the organic phase containing the lipid mixture and the aqueous phase containing the mRNA component in the flow ratio range of 1:1 to 1:4 at a mixing speed of 10 mL/min to 18 mL/min; (4) the prepared lipid nanoparticles (N/P ratio of 6) were diluted with phosphate buffer solution and the nanoparticle solutions were ultrafiltered to the original preparation volume using ultrafiltration tubes (purchased from Millipore) with a cut-off molecular weight of 30 kDa; and (5) the obtained nanoparticles were filtered through a sterile 0.2 μm filter membrane and then stored in a sealed glass vial at low temperature.
# The particle size and particle size dispersity index (PDI) of the prepared lipid nanoparticles were measured using a Zetasizer Pro (purchased from Malvern Instruments Ltd) and a DynaPro NanoStar (purchased from Wyatt) dynamic light scattering instrument. The degree of RNA encapsulation by lipid nanoparticles was characterized by the Encapsulation Efficiency %, which reflects the degree of binding of lipid nanoparticles to RNA fragments. This parameter was measured by the method of Quant-it™ RiboGreen RNA Assay (purchased from Invitrogen). Lipid nanoparticle samples were diluted in TE buffer (10 mM Tris-HCl, 1 mM EDTA, pH=7.5). A portion of the sample solution was removed, to which 0.5% Triton (Triton X-100) was added, and then allowed to stand at 37° C. for 30 minutes. Immediately after the addition of RIBOGREEN® reaction solution, the fluorescence values were read on a Varioskan LUX multifunctional microplate reader (purchased from Thermofisher) at 485 nm for absorption and 528 nm for emission to give the encapsulation efficiency values.
# [2] = Encapsulation efficiency by Quant-it RiboGreen RNA Assay; format: physicochemical; conditions: LNP 50:38.5:10:1.5, N/P 6, luciferase mRNA
# Procedure: as §1
# The particle size and particle size dispersity index (PDI) of the prepared lipid nanoparticles were measured using a Zetasizer Pro (purchased from Malvern Instruments Ltd) and a DynaPro NanoStar (purchased from Wyatt) dynamic light scattering instrument. […] This parameter was measured by the method of Quant-it™ RiboGreen RNA Assay (purchased from Invitrogen). […]
# [3] = system: C57BL/6 mice; test: Animal experiment: in vivo bioluminescence after i.v. lipid nanoparticles encapsulated with luciferase mRNA; conditions: compound 20 vs. D1, compound 46 vs. D2
# Procedure: The delivery effect and safety of nanoparticles encapsulated with luciferase mRNA (Trilink, L-7202) in mice were evaluated. The test mice were SPF-grade C57BL/6 mice, female, 6-8 weeks old, weighing 18-22 g, and were purchased from SPF (Beijing) Biotechnology Co., Ltd. All animals were acclimatized for more than 7 days prior to the experiment, and had free access to food and water during the experiment. The conditions include alternating light and dark for 12/12 h, the indoor temperature of 20-26° C. and the humidity of 40-70%. The mice were randomly grouped. […] The anesthetized mice were placed in IVIS for fluorescence imaging, and data acquisition and analysis were performed on the concentrated distribution area of fluorescence.
# The in vivo delivery efficiency of lipid nanoparticle carriers was expressed as the mean values of fluorescence intensity and total photon count in different animals within the same subject group, as shown in Table 5. Higher values of fluorescence intensity and total photon count indicate higher in vivo delivery efficiency of this mRNA fragment by lipid nanoparticles. […]
Particle size dispersity (PDI) [1],Structure (SMILES),also measured
0.07,CCCCCCCCCOC(=O)C(C)(C)CCCCCCC(CCCCCCC(C)(C)C(=O)OCC(CCCCC)CCCCCCC)OC(=O)CCCN(C)C (centres unmarked) [Compound 125],–
0.05,CCCCCCCCCOC(=O)C(C)(C)CCCCCC(CCCCCC(C)(C)C(=O)SCCCCCCCCC)OC(=O)CCCN(C)C (centres unmarked) [Compound 41],–
0.06,CCCCC(CC#CCOC(=O)C(C)(C)CCCCCC(CCCCCC(C)(C)C(=O)OCC#CCC(CCCC)CCCC)OC(=O)CCCN(C)C)CCCC [Compound 117],–
0.07,CCCCCCCCOC(=O)C(C)(C)CCCCCC(CCCCCC(C)(C)C(=O)OCCCCCCCC)OC(=O)C1CCN(C)CC1 [Compound 100],–
0.05,CCCCCCCCCCSC(=O)C(C)(C)CCCCCC(CCCCCC(C)(C)C(=O)SCCCCCCCCCC)OC(=O)C1CCN(C(C)C)CC1 [Compound 105],–
0.07,CCCCCCCCCOC(=O)C(C)(C)CCCCCC(CCCCCC(C)(C)C(=O)OCC#CC(CCCCCC)CCCCCC)OC(=O)CCCN(C)C (centres unmarked) [Compound 118],–
0.04,CCCCCCCCCOC(=O)C(C)(C)CCCCCC(CCCCCC(C)(C)C(=O)OCCCCCCCCC)OC(=O)C1CCN(C(C)C)CC1 [Compound 103],–
0.06,CCCCCCCCCSC(=O)C(C)(C)CCCCCC(CCCCCC(C)(C)C(=O)SCCCCCCCCC)OC(=O)CC1CCN(CC)CC1 [Compound 109],–
0.04,"CCCCC/C=C\C/C=C\CCCCCCCCC(CCCCCCCC/C=C\C/C=C\CCCCC)OC(=O)CCCN(C)C [DLin-MC3-DMA, reference compound]",Encapsulation efficiency (%) [2]: 95.62%
0.20,"CCCCCCCCCOC(=O)CCCCCCC(CCCCCCC(=O)OCC(CCCCC)CCCCCCC)OC(=O)CCCN(C)C (centres unmarked) [D2, reference compound]",–
0.05,CCCCCCCC#CCOC(=O)C(C)(C)CCCCCC(CCCCCC(C)(C)C(=O)OCC(CCCCC)CCCCCCC)OC(=O)CCCN(C)C (centres unmarked) [Compound 116],–
0.05,CCCCCCCCCSC(=O)C(C)(C)CCCCCC(CCCCCC(C)(C)C(=O)SCCCCCCCCC)OC(=O)C1CCN(C(C)C)CC1 [Compound 107],–
0.05,CCCCCCCCCSC(=O)C(C)(C)CCCCCC(CCCCCC(C)(C)C(=O)OCC#CCCC(CCCC)CCCC)OC(=O)CCCN(C)C (centres unmarked) [Compound 119],"Encapsulation efficiency (%) [2]: 86.92%; Particle size (nm) ([1]; LNP ionizable lipid:cholesterol:DSPC:DMG-PEG2000 50:38.5:10:1.5, N/P 6, luciferase mRNA): 80.98 nm"
0.05,CCCCCCCCCSC(=O)C(C)(C)CCCCCC(CCCCCC(C)(C)C(=O)SCCCCCCCCC)OC(=O)CC1CCN(C)CC1 [Compound 108],–
0.05,CCCCCCC(CCCCCC)CCOC(=O)CCC(C)(C)CCCC(CCCC(C)(C)CCC(=O)OCCC(CCCCCC)CCCCCC)OC(=O)CCCN(C)C [Compound 128],–
0.03,CCCCCCCCCOC(=O)C(C)(C)CCCCCC(CCCCCC(C)(C)C(=O)OCCCCCCCCC)OC(=O)C1CCN(C)CC1 [Compound 102],–
0.05,CCCCCCCCCCSC(=O)C(C)(C)CCCCCC(CCCCCC(C)(C)C(=O)OCCCCCCCCC)OC(=O)CCCN(C)C (centres unmarked) [Compound 40],–

Particle size dispersity (PDI) [1],Structure (SMILES),also measured
0.06,CCCCCCCCCOC(=O)C(C)(C)CCCCCC(CCCCCC(C)(C)C(=O)OCC(CCCCC)CCCCCCC)OC(=O)CC1CCN(C)CC1 (centres unmarked) [Compound 111],–
0.06,CCCCCCCCCOC(=O)C(C)(C)CCCCCCC(CCCCCCC(C)(C)C(=O)OCC(CCCCC)CCCCCCC)OC(=O)CCCCN(C)C (centres unmarked) [Compound 126],–
0.13,CCCCCCC/C=C\COC(=O)CC(C)(C)CCCCC(CCCCC(C)(C)CC(=O)OCC(CCCCC)CCCCCCC)OC(=O)CCCN(C)C (centres unmarked) [Compound 98],–
0.06,CCCCCCCCCCSC(=O)C(C)(C)CCCCCC(CCCCCC(C)(C)C(=O)SCCCCCCCCCC)OC(=O)C1CCN(C)CC1 [Compound 104],–
0.05,CCCCCCCCCCOC(=O)C(C)(C)CCCCCC(CCCCCC(C)(C)C(=O)OCCCCCCCCCC)OC(=O)CCN1CCCC1 [Compound 92],–
0.05,CCCCCCCCCSC(=O)C(C)(C)CCCCCC(CCCCCC(C)(C)C(=O)SCCCCCCCCC)OC(=O)C1CCN(C)CC1 [Compound 106],–
0.09,CCCCCCCCCOC(=O)C(C)(C)CCCCCC(CCCCCC(C)(C)C(=O)OCC(CCCCC)CCCCCCC)OC(=O)CCCN(C)C (centres unmarked) [Compound 46],in vivo delivery efficiency compared with the molecule without tetramethyl [3]: significantly increased in vivo delivery efficiency
0.07,CCCCCCC#CCOC(=O)C(C)(C)CCCCCC(CCCCCC(C)(C)C(=O)OCCCCCCCCC)OC(=O)CCCN(C)C (centres unmarked) [Compound 42],–
0.05,CCCCCCCCCCOC(=O)C(C)(C)CCCCC(CCCCC(C)(C)C(=O)OCC(CCCCC)CCCCCCC)OC(=O)CCCN(C)C (centres unmarked) [Compound 123],–
0.04,CCCCCCCC#CCOC(=O)C(C)(C)CCCCCC(CCCCCC(C)(C)C(=O)OCCCC(CCCCC)CCCCC)OC(=O)CCCN(C)C (centres unmarked) [Compound 115],–
0.07,CCCCCCCCCOC(=O)C(C)(C)CCCCC(CCCCC(C)(C)C(=O)OCC(CCCCC)CCCCCCC)OC(=O)CCCN(C)C (centres unmarked) [Compound 122],–
0.05,CCCCCCCCCCOC(=O)C(C)(C)CCCCCC(CCCCCC(C)(C)C(=O)OCCCCCCCCCC)OC(=O)CN1CCOCC1 [Compound 91],–
0.08,CCCCCCCCCSC(=O)C(C)(C)CCCCCC(CCCCCC(C)(C)C(=O)OCC(CCCCC)CCCCCCC)OC(=O)CC1CCN(C)CC1 (centres unmarked) [Compound 112],–
0.06,CCCCCCCC(CCCCCCC)COC(=O)CCC(C)(C)CCCC(CCCC(C)(C)CCC(=O)OCC(CCCCCCC)CCCCCCC)OC(=O)CCCN(C)C [Compound 129],–
0.05,CCCCCCCCCCOC(=O)C(C)(C)CCCCCC(CCCCCC(C)(C)C(=O)OCCCCCCCCCC)OC(=O)CCN1CCOCC1 [Compound 90],–
0.18,"CCCCCCCCCOC(=O)CCCCCCC(CCCCCCC(=O)OCCCCCCCCC)OC(=O)CCCN(C)C [D1, reference compound]",–
0.06,CCCCCCCCOC(=O)C(C)(C)CCCCCC(CCCCCC(C)(C)C(=O)OCCCCCCCC)OC(=O)C1CCN(C(C)C)CC1 [Compound 101],–

Structure (SMILES),Particle size dispersity (PDI) [1],also measured
CCCCCCCCCOC(=O)C(C)(C)CCCCCC(CCCCCC(C)(C)C(=O)OCCCCCCCCC)OC(=O)CC1CCN(CCO)CC1 [Compound 113],0.03,–
CCCCCCCCCOC(=O)C(C)(C)CCCCCC(CCCCCC(C)(C)C(=O)OCC(CCCCC)CCCCCCC)OC(=O)CC1CCN(CCO)CC1 (centres unmarked) [Compound 114],0.04,–
CCCCCCCCCCOC(=O)C(C)(C)CCCCCC(CCCCCC(C)(C)C(=O)OCCCCCCCCCC)OC(=O)C1CCN(C)CC1 [Compound 99],0.05,–
CCCCCCCCCOC(=O)CC(C)(C)CCCCC(CCCCC(C)(C)CC(=O)OCCCCCCCCC)OC(=O)CCCN(C)C [Compound 97],0.25,–
CC(C)CCCCCCCOC(=O)CCC(C)(C)CCCC(CCCC(C)(C)CCC(=O)OCCCCCCCC(C)C)OC(=O)CCCN(C)C [Compound 127],0.05,–
CCCCCCCCCSC(=O)C(C)(C)CCCCCC(CCCCCC(C)(C)C(=O)SCCCCCCCCC)OC(=O)CC1CCN(CCO)CC1 [Compound 110],0.01,–
